In US10723733B2, “Hepatitis B antiviral agents” (Enanta Pharmaceuticals, Inc., priority 2017, dated 2020) one finds EC50 and CC50 data, which are given here for 14 compounds.

Molecules are shown by their SMILES.

In one series the test system is HBV. The series can be described thus: HepAD38 antiviral assay: reduction of viral product accumulation (virion DNA by qPCR, HBsAg/HBeAg by ELISA). It is filed as cell-based. To be noted: Hepatitis B virus, 120 h; HepAD38 cells; 50% reduction of viral product accumulation vs no drug controls; five days after compound addition; class symbols. A digest of the protocol:
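Tetracycline-free HepAD38 cells, 35,000/well, treated with DMSO compounds diluted 1:200 for 5 days, or 8 days with media and compound refreshed on d2 and d5. Virion DNA by qPCR, HBsAg/HBeAg by ELISA; EC50 is 50% reduction versus no-drug controls, binned A<0.1 μM, B 0.1-1 μM, C>1 μM.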
On the technique in general: In qPCR the cycle at which signal appears reflects the starting amount.

A short description of series [1]: Compound toxicity, ATPLite total ATP levels. It is filed as cell-based. Conditions: human, HepG2 cells, 50% reduction of total ATP levels (ATPLite), three days after compound addition. As to the method: Compound toxicity is evaluated by seeding cells at 15,000 cells/well and treating with compound as described above.

On to `O=S(=O)(N[C@H]1CC2=C(c3cnn(C(F)F)c3)[C@H](c3ccc(F)cc3Cl)N=C(c3nccs3)N2C1)C1CC1` [Example 1], for which the EC50 with HBV was less than 0.1 µM. In addition, the CC50 at 3 days in series [1] is greater than 25 µM.

For `O=S(=O)(N[C@H]1CC2=C(c3ccn(C4CC4)n3)[C@H](c3ccc(F)cc3Cl)N=C(c3nccs3)N2C1)C1CC1` [Example 3], in the series on HBV, the EC50 was less than 0.1 µM. The compound also registered a CC50 at 3 days in series [1] greater than 25 µM.

On to `O=S(=O)(N[C@H]1CC2=C(c3cnn(C4CC4)c3)[C@H](c3ccc(F)cc3Cl)N=C(c3nccs3)N2C1)C1CC1` [Example 6], for which the EC50 with HBV was less than 0.1 µM. The CC50 at 3 days in series [1] is greater than 25 µM.

Compound `O=S(=O)(N[C@H]1CC2=C(c3cnn(C(F)(F)F)c3)[C@H](c3ccc(F)cc3Cl)N=C(c3nccs3)N2C1)C1CC1` [Example 8] came in with an EC50 with HBV of less than 0.1 µM. For the same compound, the CC50 at 3 days in series [1] lay in the range of 10 to 25 µM.

Take `NS(=O)(=O)N[C@H]1CC2=C(c3cnn(C(F)F)c3)[C@H](c3ccc(F)cc3Cl)N=C(c3nccs3)N2C1` [Example 9]: in the series on HBV, the EC50 was less than 0.1 µM. Also, the CC50 at 3 days in series [1] is greater than 25 µM.

`CS(=O)(=O)N[C@H]1CC2=C(c3cnn(C(F)F)c3)[C@H](c3ccc(F)cc3Cl)N=C(c3nccs3)N2C1` [Example 10] showed an EC50 in the series with HBV of less than 0.1 µM. The compound further displayed a CC50 at 3 days in series [1] greater than 25 µM.

In the case of `CNS(=O)(=O)N[C@H]1CC2=C(c3cnn(C(F)F)c3)[C@H](c3ccc(F)cc3Cl)N=C(c3nccs3)N2C1` [Example 11], the EC50 in the series on HBV is less than 0.1 µM. The cytotoxic concentration (CC50) at 3 days in series [1] is greater than 25 µM.

In the case of `O=S(=O)(NC1CC1)N[C@H]1CC2=C(c3cnn(C(F)F)c3)[C@H](c3ccc(F)cc3Cl)N=C(c3nccs3)N2C1` [Example 12], the EC50 with HBV was less than 0.1 µM. This compound also gave a CC50 at 3 days in series [1] of 10 to 25 µM.

In the case of `CN(C)S(=O)(=O)N[C@H]1CC2=C(c3cnn(C(F)F)c3)[C@H](c3ccc(F)cc3Cl)N=C(c3nccs3)N2C1` [Example 13], in the series with HBV, the EC50 was less than 0.1 µM. This compound also yielded a CC50 at 3 days in series [1] greater than 25 µM.

With `O=S(=O)(N[C@H]1CC2=C(c3cnn(C(F)F)c3)[C@H](c3ccc(F)cc3Cl)N=C(c3nccs3)N2C1)C1CCOCC1` [Example 56], in the series with HBV, the EC50 was less than 0.1 µM. Moreover, the CC50 at 3 days in series [1] was greater than 25 µM.

In the case of `COCCS(=O)(=O)N[C@H]1CC2=C(c3cnn(C(F)F)c3)[C@H](c3ccc(F)cc3Cl)N=C(c3nccs3)N2C1` [Example 57], the EC50 in the series on HBV is less than 0.1 µM. This compound returned a CC50 at 3 days in series [1] greater than 25 µM.

In the series with HBV, `COC(=O)N[C@]1(CO)CC2=C(c3ccn(C(F)F)n3)[C@H](c3ccc(F)cc3Cl)N=C(c3nccs3)N2C1` [Example 61] came in with an EC50 of less than 0.1 µM. The same compound gave a CC50 at 3 days in series [1] greater than 25 µM.

With `O=C1N[C@@](CO)(CC2=C(c3ccn(C(F)F)n3)[C@H](c3ccc(F)cc3Cl)N=C(c3nccs3)N2)CO1` [Example 94], the EC50 with HBV was less than 0.1 µM. Besides, the CC50 at 3 days in series [1] was greater than 25 µM.

In the series with HBV, `OC[C@@]1(F)CC2=C(c3cnn(C(F)F)c3)[C@H](c3ccc(F)cc3Cl)N=C(c3nccs3)N2C1` [Example 149] returned an EC50 of 0.1 to 1 µM.

One may read the EC50 as the concentration at which the effect is half-maximal. A higher EC50 goes with a less potent agent. Usually CC50 stands for the concentration giving 50% cytotoxicity.
